Measured values taken from PubChem BioAssay AID179 (DTP/NCI, 2004).
Calls of active or inactive are those of the source.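 Rule for the calls: active = compounds giving half or more protection of infected cells from virus-caused growth loss, again on retest; inactive = the rest.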

System: CEM cells HIV-1 protection, formazan growth assay
Assay: NCI AIDS Antiviral Assay
Conditions: for IC50: measured here: growth of uninfected CEM cells
Procedure, shortened: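 CEM (human) cells, HIV-1 infected vs uninfected, 5-point dosing, formazan growth read-out. Retest threshold 50% protection.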

Row | Structure (SMILES) | EC50 | IC50 | outcome
1 | CC(=Nc1ccccc1C(=O)[O-])c1c([O-])ccc2c(C)cc(=O)oc12.[OH3+].[OH3+].[OH3+].[Zn+2] | > 2.29 µM | > 2.29 µM | –
2 | CC(C)=C1CCC(C)C/C1=N\NC(N)=S (stereo not drawn) | > 200 µM | 19.5 µM | –
3 | NC1=Nc2ccccc2Sc2nncn21 | > 200 µM | 151 µM | –
4 | NCCNCCNCc1c2ccccc2c(CNCCNCCN)c2ccccc12 | 5.89 µM | 39.8 µM | –
5 | COc1cccc(C(=O)N[C@@H]2[C@H](O)[C@@H](CO)O[C@H]2n2cnc3c(N)ncnc32)c1 | > 200 µM | > 200 µM | –
6 | Cc1ccc(C2CC(c3ccco3)=NN2c2ccccc2)o1 (stereo not drawn) | > 17.8 µM | > 17.8 µM | –
7 | NC(=Nc1ccc(S(=O)(=O)Nc2cnc3ccccc3n2)cc1)/N=C(/N)Nc1ccc(Br)cc1 | > 87.1 µM | > 87.1 µM | –
8 | COc1ccc(/C=C/C(=O)C(C)(C)C)cc1OC | > 200 µM | 39.8 µM | –
9 | Clc1nc(Nc2nc3ccccc3[nH]2)nc(Cl)c1-c1ccccc1 | – | – | inactive
10 | CN1C(=O)C2C=CC1C1CCC2N(C)C1=O (stereo not drawn) | – | – | inactive
11 | CC(=O)c1c2n(n(-c3ccccc3)c1=O)C(=O)c1nccnc1-2 | > 200 µM | > 200 µM | –
12 | CCN(CC)C1CS(=O)(=O)OC(c2ccccc2)=C1C (stereo not drawn) | > 316 µM | 22.4 µM | –
13 | Cc1[nH]c2nccn2c(=O)c1CCCl | > 200 µM | 11.5 µM | –
14 | CN(CC#N)C1CCC[C@]1(O)C#C[Si](C)(C)c1ccccc1 (stereo partly drawn) | > 60.3 µM | 57.5 µM | –
15 | CCOC(=O)/C=C1/C(CCCOCc2ccccc2)C2CCCC23CC2(CCN13)OCCO2 (stereo not drawn) | – | – | inactive
16 | O=C1N[Se](=O)c2ccccc21 (stereo not drawn) | 2.69 µM | 22.9 µM | –
17 | CCOC(=O)/C=C/n1c2ccccc2c(=O)c2cc(OC)ccc21 | > 22.4 µM | > 22.4 µM | –
18 | NC1=NS(=O)(=O)Nc2nc(-c3ccc(Cl)cc3)c(-c3ccc(Cl)cc3)nc21 | > 61.7 µM | > 61.7 µM | –
19 | O=C(/C=C\c1cccc2ccccc12)c1ccc(Cl)cc1Cl | > 1.66 µM | > 1.66 µM | –
20 | CN(C)CC1CCCc2ccccc2C1=O (stereo not drawn) | – | – | inactive
21 | OC1CC1Sc1ccccc1 (stereo not drawn) | – | – | inactive
22 | O=C1C(Cl)=C(c2ccc(Cl)s2)C(=O)c2ccccc21 | > 42.7 µM | 7.59 µM | –
23 | O=C1c2ccccc2C(=O)c2nc3c(O)cccc3cc21 | > 19.1 µM | > 19.1 µM | –

Row | Structure (SMILES) | EC50 | IC50 | outcome
24 | Cc1ccc(Sc2ccccc2[N+](=O)[O-])cc1 | – | – | inactive
25 | COC(=O)/C=C1\C(CO[Si](C)(C)C(C)(C)C)OC(n2ccc(=O)[nH]c2=O)C1O[Si](C)(C)C(C)(C)C (stereo not drawn) | > 200 µM | 8.32 µM | –
26 | CC1(C)CNCC2(C)OCCCCCCCCCCOC3(C)CNCC(C)(C)[N-]C(=O)C(C)(CNCC(C)(C)[N-]C3=O)OCCCCCCCCCCOC(C)(CNCC(C)(C)[N-]C2=O)C(=O)[N-]1.[Ni+2].[Ni+2] | > 200 µM | – | –
27 | O=C1C=C(C23CC4CC(CC(C4)C2)C3)N2CCCc3cccc(c32)N1 | > 100 µM | > 100 µM | –
28 | O=C1Nc2cccc3c2N(CCC3)C2=C1CCC2 | > 200 µM | > 200 µM | –
29 | Cc1ccnc(NS(=O)(=O)c2ccc(N=Cc3ccccc3O)cc2)n1 | > 200 µM | > 200 µM | –
30 | NC1CN(C(COCc2ccccc2)c2ccc(OCc3ccccc3)cc2)C1=O (stereo not drawn) | – | – | inactive
31 | COc1ccc(Cc2c(-c3ccc(C)cc3)n[nH]c(=O)c2C2C(=O)N(c3ccccc3)N=C2c2ccccc2)cc1 (stereo not drawn) | > 200 µM | 38 µM | –
32 | O=C(O)Cc1[nH]c(=O)[nH]c(=O)c1CCl | > 100 µM | > 100 µM | –
33 | N#C/C(C(=O)Nc1ccccc1)=C(/N)N1CCCCC1 | > 200 µM | > 200 µM | –
34 | CC(=O)Oc1c(OC(C)=O)c(-c2ccc(O)c(O)c2)c(O)c(O)c1-c1ccc(O)cc1 | > 200 µM | 27.5 µM | –
35 | CCCC(=O)Oc1ccc2c(C)cc(=O)oc2c1OC(=O)CCC | > 200 µM | 77.6 µM | –
36 | CC(=O)O[C@]1(C)CCC2C(C)C(=O)OC2C2C(C)[C@@H](O)CC21 (stereo partly drawn) | > 200 µM | 34.7 µM | –
37 | NCC(=O)NC(CCCC(NC(=O)CN)P(=O)(O)O)P(=O)(O)O (stereo not drawn) | – | – | inactive
38 | CN1C(=O)N/C(=C\c2ccc(S(=O)(=O)N/N=C\C(O)C(O)C(O)CO)cc2)C1=O (stereo not drawn) | > 200 µM | > 200 µM | –
39 | Cc1c(O)cc2c(c1O)C(=O)CC(c1ccc(O)cc1)O2 (stereo not drawn) | > 200 µM | 93.3 µM | –
40 | NC(=O)c1cnc2sc3ccccc3n2c1=O | > 200 µM | > 200 µM | –
41 | NC1(CCCCCCCCCCC(=O)O)CNCCNCCNCCNC1 | > 437 µM | 3.47 µM | –
42 | CCOP(=O)(Cc1ccc(CP(=O)(OCC)OCC)n1C)OCC | – | – | inactive
43 | COc1ccc(/C=C2\N=C(SC)N(CN3CCCCC3)C2=O)cc1 | > 200 µM | > 200 µM | –
44 | O=[N+]([O-])c1cccc[c]1[Sb](=[O])([OH])[OH] | > 200 µM | 7.41 µM | –
45 | CC(=O)N=C1N(/C=C2\C(=O)Oc3ccccc3C2=O)C(=O)/C(=C/c2ccc(OC(C)=O)cc2)N1C | > 200 µM | 107 µM | –
46 | O/N=C/c1cc2c(cc1Br)OCO2 | > 155 µM | > 155 µM | –

Row | Structure (SMILES) | EC50 | IC50 | outcome
47 | COc1cccc(OC)c1NC1=NCCO1 | > 200 µM | 120 µM | –
48 | CN1c2c(C(=O)NCCCN3CCOCC3)nn(-c3cccc(C(F)(F)F)c3)c2-c2ccccc2S1(=O)=O | > 66.1 µM | > 66.1 µM | –
49 | CN(C)CC1(C)Cc2sccc2C1=O (stereo not drawn) | > 200 µM | > 200 µM | –
50 | N#C/C(N)=C(\C#N)N=CN | > 200 µM | > 200 µM | –
51 | CCOC(=O)CCC(NC(=O)c1ccc(Nc2nc3ccccc3nc2-c2cccs2)cc1)C(=O)OCC (stereo not drawn) | > 200 µM | 13.5 µM | –
52 | CCCCCCCCCCCCCCCCOCC(Cl)COP(=O)(O)OP(=O)(O)OCC1OC(n2cc(C)c(=O)[nH]c2=O)CC1O (stereo not drawn) | > 145 µM | 123 µM | –
53 | COc1ccccc1NS(=O)(=O)c1ccc2ncn(NS(=O)(=O)c3ccc(Cl)cc3)c(=O)c2c1 | – | – | inactive
54 | CC(=O)Nc1ccc([As](=O)(O)O)cc1NC(C)=O | > 200 µM | 28.2 µM | –
55 | C[N+](C)([O-])CCNC(=O)c1cccc2cc3ccccc3nc12 | – | – | inactive
56 | COc1ccc(C(CC(=O)c2ccc3c(c2)OCO3)c2c(O)c3ccccc3oc2=O)cc1OC (stereo not drawn) | > 200 µM | 75.9 µM | –
57 | COc1cc2ccnc3c2c(c1OC)-c1coc(SC)c1-3 | – | – | inactive
58 | O=c1oc(-c2ccccc2)nnc1-c1ccccc1 | > 178 µM | > 178 µM | –
59 | CCOC(=O)/C(=C\c1cccc(Cl)c1)C(C)=O | > 141 µM | 57.5 µM | –
60 | COc1ccc2c(c1)[nH]c1c(C)c3ccncc3c(C)c12 | > 200 µM | 0.112 µM | –
61 | O=C(Nc1cc(Cl)ccc1Cl)C(=O)C(c1cnc2ccccc2n1)[N+](=O)[O-] (stereo not drawn) | > 89.1 µM | 38.9 µM | –
62 | O=c1oc2ccccc2c(O)c1/C=N\c1nc(-c2ccc(O)c(O)c2)cs1 | > 200 µM | 3.24 µM | –
63 | O=C(Cc1ccccc1)NN1C(=O)/C(=C\c2ccccc2O)SC1=Nc1ccccc1 | > 219 µM | 174 µM | –
64 | COCN1C(=O)[C@@H]2CCCN2C(=O)c2ccc(Cl)cc21 | > 200 µM | > 200 µM | –
65 | N#CCCN(C(=O)Nc1cccc(C(F)(F)F)c1)C1CCCCC1 | > 200 µM | > 200 µM | –
66 | O=C(O)CCCCCCC[C@H]1S[C@H]1CCCCCCO | – | – | inactive
67 | CC(C)CC(=O)CC(C)[C@]1(CCCOCc2ccccc2)C(=O)N2CCC3(C[C@@]24CCC[C@H]41)OCCO3 (stereo partly drawn) | > 200 µM | 35.5 µM | –
68 | CC1(O)Cn2c(nc3nccnc32)S1 (stereo not drawn) | > 603 µM | 31.6 µM | –
69 | N/C(=N\NS(=O)(=O)c1ccccc1)C(F)(F)F | > 200 µM | 107 µM | –

Row | Structure (SMILES) | EC50 | IC50 | outcome
70 | CCCCCCCCCCCCCCCCCC(=O)OC[C@H](COP(=O)(O)OCCNC(=O)CCC(=O)O)OC(=O)CCCCCCCCCCCCCCCCC | > 50.1 µM | > 50.1 µM | –
71 | CC(C#N)NCc1ccccc1 (stereo not drawn) | – | – | inactive
72 | CCOC(=O)C(NC(=O)c1ccccc1)[CH](c1ccccc1)[Sn]([c]1ccccc1)([c]1ccccc1)[c]1ccccc1 (stereo not drawn) | > 200 µM | 20.4 µM | –
73 | N#Cc1c2c(c(-c3cccs3)n(C3OC(CO)C(O)C(O)C3O)c1=S)CCc1ccccc1-2 (stereo not drawn) | – | – | inactive
74 | Cc1ccc(N=Nc2c(O)c(S(=O)(=O)O)cc3cc(S(=O)(=O)O)ccc23)c(C)c1 | – | – | inactive
75 | CN1CCN(C(=S)N(C(=O)c2cccs2)C2CCCCC2)CC1 | > 195 µM | 91.2 µM | –
76 | Oc1cc2c(cc1O)C1c3ccc(O)c(O)c3OCC1(O)C2 (stereo not drawn) | > 200 µM | 9.55 µM | –
77 | O=c1[nH]c2cc(C(F)(F)F)ccc2nc1Cc1ccccc1 | > 200 µM | > 200 µM | –
78 | CSc1ccc(/C=C2/C[N+](C)(C)C/C(=C/c3ccc(SC)cc3)C2=O)cc1 | > 129 µM | 12.3 µM | –
79 | COc1ccc(-n2sc3ncccc3c2=O)cc1 | > 18.2 µM | 6.03 µM | –
80 | Nc1nc2cc(Cl)ccc2n1N | > 200 µM | > 200 µM | –
81 | CCC12C[N+]3([O-])CCc4c([nH]c5ccccc45)C(C(=O)OC)(c4cc5c(cc4OC)N(C)C4C(O)(C(=O)OC)C(OC(C)=O)C6(CC)C=CCN7CCC54C76)CC(C3)C1O2 (stereo not drawn) | – | – | inactive
82 | CC(C)(CO)CNc1cc(Cl)nc(N)n1 | > 200 µM | > 200 µM | –
83 | CCCCCCCCC(O)C(O)CCCCCCCC(=O)O (stereo not drawn) | > 200 µM | 53.7 µM | –
84 | CC(C)(C)C1CCC(C[Se]c2ccccc2)([N+](=O)[O-])CC1 (stereo not drawn) | – | – | inactive
85 | [NH-]CC[NH-].[NH-]CC[NH-].[NH-]CC[NH-].[Ni+2].[O-][Cl+3]([O-])([O-])O | > 200 µM | 77.6 µM | –
86 | C=C1C(C(=O)OC)[C@@]2(C)C(C(=O)OC)C(=O)C(C(=O)OC)[C@@]2(CCC)C1C(=O)OC (stereo partly drawn) | > 141 µM | 72.4 µM | –
87 | C=C(C)[C@@]1(O[Si](C)(C)C)CCCC[C@@H]1CC(Sc1ccccc1)Sc1ccccc1 | > 200 µM | 11.5 µM | –
88 | C[C@H]1CC[C@H]([C@@H](C)[C@H]2[C@@H](O)C[C@H]3[C@@H]4CC[C@H]5C[C@@H](O)CC[C@]5(C)[C@H]4CC[C@]23C)NC1 | > 200 µM | 12.6 µM | –
89 | CC(=O)O[C@H]1CCC2[C@@H]3CCC4=C(O)C(=O)C(C#N)C[C@]4(C)C3CC[C@@]21C (stereo partly drawn) | – | – | inactive
